Measured values as given in patent US8513161B2, “Enhancement of plant growth” (Valent Biosciences Corporation, priority 2007, dated 2013).
Counter-ions that a name gives are not always drawn.

Assays:
cotton [1] = assay: Continuous exposure pouch study, PESA salt and imidacloprid on cotton; assay type: in vivo; details: for shoot length of cotton / root length of cotton: in pouch; for shoot length of cotton: control 6.2; for root length of cotton: control 13.3
Description: Seeds were placed in germination pouches consisting of germination paper hydrated with sterile water that was an insert in a gas-permeable 16×14 cm plastic pouch (CYG Pouch; Mega International, St. Paul, Minn.). In these examples, in pouch solution evaluation, clothianidin and PESA sodium salt were added to the sterile water in the pouch. Alternatively, imidacloprid or dinotefuran and PESA sodium salt were added to the sterile water in the pouch. The pouches were arranged in a completely randomized block design in growth racks and placed in 19-liter polycarbonate food storage containers (Rubbermaid Commercial Products, Winchester, Va.). The sealed containers were held in an upright growth cabinet maintained at 25 C with a 12 hour light: 12 hour dark photoperiod. After 6 days, the containers were removed from the growth cabinet, and the lengths of the roots and shoot were measured. […] Root lengths of the control and combination treatment of imidacloprid with 100 mg/liter PESA salt were similar.

rice = assay: Pouch study of rice, imidacloprid seed treatment with PESA salt solution in pouch; assay type: in vivo
Description: (§1) Seed was sieved with a screen of hole size appropriate to remove broken seeds and small trash. Cracked or otherwise damaged seeds were removed. The seed was well mixed, and 50 g samples were weighed into small plastic trays. Seed treatment slurries were made by adding measured amounts of the active ingredients to sufficient water to bring them up to a standard volume, typically 2 ml. A fungicide (Maxim XL; Syngenta Agricultural Products, Greensboro, N.C.), a polymeric binder (CF-Clear; Becker-Underwood, Ames, Iowa), and a colorant (Color Coat Red; Becker-Underwood, Ames, Iowa) were also included in the slurry at label rates. A small aliquot of this slurry was applied to the seed using the Hege 11 coater (Wintersteiger, Salt Lake City, Utah) with a six-inch bowl. The slurry was deposited drop-wise on the spinning disk atomizer using a syringe.
(§2) Seeds were placed in germination pouches consisting of germination paper hydrated with sterile water that was an insert in a gas-permeable 16×14 cm plastic pouch (CYG Pouch; Mega International, St. Paul, Minn.). In these examples, in pouch solution evaluation, clothianidin and PESA sodium salt were added to the sterile water in the pouch. Alternatively, imidacloprid or dinotefuran and PESA sodium salt were added to the sterile water in the pouch. The pouches were arranged in a completely randomized block design in growth racks and placed in 19-liter polycarbonate food storage containers (Rubbermaid Commercial Products, Winchester, Va.). The sealed containers were held in an upright growth cabinet maintained at 25 C with a 12 hour light: 12 hour dark photoperiod. After 6 days, the containers were removed from the growth cabinet, and the lengths of the roots and shoot were measured.
Root lengths of the control and combination treatment of 200 grams imidacloprid/100 pounds of seed with 50 mg/liter PESA salt were similar.

cotton [2] = assay: Continuous exposure pouch study, PESA salt and clothianidin on cotton; assay type: in vivo; details: for shoot length of cotton / root length of cotton: in pouch; for shoot length of cotton: control 6.1; for root length of cotton: control 11.4
Description: as §2

cotton [3] = assay: Pouch assay of cotton after PESA salt and clothianidin seed treatments; assay type: in vivo; details: seed treatment; for shoot length of cotton: control 3.7; for root length of cotton: control 9.6
Description: as §1, §2

maize = assay: Field study, seed treatment of maize; assay type: in vivo, Zea mays; details: 27 days after planting, control 3.6
Description: (§3) For the field studies, the seed was treated with a seed treatment formulation containing clothianidin. The rate of clothianidin was dependent on the crop species. The seed treatment formulations were amended with the appropriate concentrations of either PESA or the sodium salt of PESA. Crops were planted and grown under standard agricultural practices, and evaluated at the times indicated. The PESA or the sodium salt of PESA was prepared as described above, and was used in seed treatment either alone or in the presence of clothianidin. Maize (Zea mays) seed was treated with 0 or 0.25 milligrams of clothianidin/seed and with 0, 22, 55, or 137.5 grams PESA salt/100 kg seed.

canola = assay: Field study, seed treatment of canola; assay type: in vivo, Brassica napus; details: for vigor rating (1 = low and 5 = high) of canola plants: 19 days after planting, control 3.8
Description: as §3, with “The” for “The PESA or the”, “Canola (Brassica napus)” for “Maize (Zea mays)”, “400 grams” for “0.25 milligrams”, “clothianidin/100 kg (220 pound) of seed” for “clothianidin/seed”

soybean = assay: Field study, seed treatment of soybean; assay type: in vivo; details: for average plant height of soybean: 66 days after planting, control 23.8
Description: as §3, with “The” for “The PESA or the”, “Soybean” for “Maize (Zea mays)”, “50 grams” for “0.25 milligrams”, “clothianidin/100 kg (220 pound) of seed” for “clothianidin/seed”

[4] = PESA salt 10 g/100 pounds of seed alone
[5] = PESA salt 25 g/100 pounds of seed alone
[6] = sodium salt of PESA 22 g/100 kg seed alone
[7] = sodium salt of PESA 55 g/100 kg seed alone
[8] = sodium salt of PESA 137.5 g/100 kg seed alone

For `O=C(O)CCC(=O)NCCc1ccccc1` [PESA salt], the “safening of cotton” value (cotton [1]; conclusion from Table 5) was “safened cotton against imidacloprid-induced root growth inhibition”, the “shoot length of cotton” value (cotton [1]; PESA salt 10 mg/liter alone) was 6.2 cm and the “root length of cotton” value (cotton [1]; PESA salt 10 mg/liter alone) was 14.6 cm. For the same compound, the “shoot length of cotton” value (cotton [1]; PESA salt 30 mg/liter alone) was 6.0 cm, the “root length of cotton” value (cotton [1]; PESA salt 30 mg/liter alone) was 16.9 cm and the “shoot length of cotton” value (cotton [1]; PESA salt 100 mg/liter alone) was 6.0 cm. For the same compound, the “root length of cotton” value (cotton [1]; PESA salt 100 mg/liter alone) was 16.5 cm, the “shoot length of cotton” value (cotton [1]; PESA salt 300 mg/liter alone) was 5.7 cm and the “root length of cotton” value (cotton [1]; PESA salt 300 mg/liter alone) was 11.9 cm. The “shoot length of rice” value (rice; PESA salt 50 mg/liter in pouch alone, control 3.3) was 3.6 cm, the “root length of rice” value (rice; PESA salt 50 mg/liter in pouch alone, control 10.7) was 12.0 cm and the “safening of rice” value (rice; conclusion from Table 7) was “safened, rice against imidacloprid-induced root growth inhibition”. The “safening of cotton” value (cotton [2]; continuous exposure pouch, conclusion from Table 3) was “safened cotton against clothianidin-induced root growth inhibition”, the “effect on cotton root length” value (cotton [2]; continuous exposure pouch, substance alone) was “increased root length in a dose-dependent manner” and the “effect on cotton shoot length” value (cotton [2]; continuous exposure pouch, 300 mg/liter PESA salt alone) was “reduced”. For the same compound, the “shoot length of cotton” value (cotton [2]; PESA salt 10 mg/liter alone) was 6.3 cm, the “root length of cotton” value (cotton [2]; PESA salt 10 mg/liter alone) was 14.2 cm and the “shoot length of cotton” value (cotton [2]; PESA salt 30 mg/liter alone) was 6.1 cm. For the same compound, the “root length of cotton” value (cotton [2]; PESA salt 30 mg/liter alone) was 15.3 cm, the “shoot length of cotton” value (cotton [2]; PESA salt 100 mg/liter alone) was 6.0 cm and the “root length of cotton” value (cotton [2]; PESA salt 100 mg/liter alone) was 16.2 cm. The “shoot length of cotton” value (cotton [2]; PESA salt 300 mg/liter alone) was 5.4 cm, the “effect on cotton shoot length” value (cotton [3]; Table 2) was “increased cotton shoot length” and the “safening of cotton” value (cotton [3]; conclusion from Table 1) was “safened cotton against clothianidin-induced root growth inhibition”. For the same compound, the “shoot length of cotton” value (cotton [3]; [4]) was 4.3 cm, the “root length of cotton” value (cotton [3]; [4]) was 8.8 cm and the “shoot length of cotton” value (cotton [3]; [5]) was 4.3 cm. For the same compound, the “root length of cotton” value (cotton [3]; [5]) was 10.6 cm, the “vigor rating of maize plants, Vigor (1-5)” value (“vigor rating of maize plants” below) (maize; PESA sodium salt 22 g/100 kg seed alone) was 3.8 and the “vigor rating of maize plants” value (maize; PESA sodium salt 55 g/100 kg seed alone) was 3.5. For the same compound, the “vigor rating of maize plants” value (maize; PESA sodium salt 137.5 g/100 kg seed alone) was 3.4, the “vigor rating (1 = low and 5 = high) of canola plants” value (from here on “vigor rating (1 = low and 5 = high)”) (canola; [6]) was 3.8 and the “vigor rating (1 = low and 5 = high)” value (canola; [7]) was 4. The “vigor rating (1 = low and 5 = high)” value (canola; [8]) was 4, the “safening of canola” value (canola; conclusion from Table 11) was “safened canola against clothianidin-induced vigor reduction” and the “average plant height of soybean” value (soybean; [6]) was 23.8 inches. For the same compound, the “average plant height of soybean” value (soybean; [7]) was 23.5 inches, the “average plant height of soybean” value (soybean; [8]) was 23.2 inches and the “safening of soybean” value (soybean; conclusion from Table 9) was “safened soybean against clothianidin-induced root growth inhibition”.
